Measurements as given in patent US9302999B2, “Substituted triazoles as herbicides” (E. I. DU PONT DE NEMOURS AND COMPANY, priority 2012, dated 2016).
Where two headings read alike, the source gives them in different places.

How the values were obtained:
Assay type in all cases: in vivo
[1] = system: ducksalad (Heteranthera limosa); experiment: Test C flooded paddy test: ducksalad; conditions: scale 0 to 100 (0 no effect, 100 complete control); for pest or weed control at 62 g/ha / pest or weed control at 250 g/ha / pest or weed control at 125 g/ha: Heteranthera limosa, read-out: Plant response rating, Ducksalad
Procedure, shortened: (§1)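 Greenhouse plants treated at the 2-leaf stage by dosing the flood water (3 cm depth, maintained) were compared with controls after 13 to 15 days and rated 0 to 100, where 100 means complete control; a dash marks no test result.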

[2] = system: sedge, umbrella (small-flower umbrella sedge, Cyperus difformis); experiment: Test C flooded paddy test: sedge, umbrella; conditions: scale 0 to 100 (0 no effect, 100 complete control); for pest or weed control at 62 g/ha / pest or weed control at 250 g/ha / pest or weed control at 125 g/ha: Cyperus difformis, read-out: Plant response rating, Sedge, Umbrella
Procedure, shortened: as §1

[3] = system: chamomile (scentless chamomile, Matricaria inodora); experiment: Test D pre-/postemergence: chamomile
Source text: (§2) Seeds of plant species selected from bluegrass (annual bluegrass, Poa annua), blackgrass (Alopecurus myosuroides), canarygrass (Phalaris minor), chickweed (common chickweed, Stellaria media), galium (catchweed bedstraw, Galium aparine), bromegrass, downy (downy bromegrass, Bromus tectorum), field poppy (Papaver rhoeas), field violet (Viola arvensis), foxtail, green (green foxtail, Setaria viridis), deadnettle (henbit deadnettle, Lamium amplexicaule), ryegrass, Italian (Italian ryegrass, Lolium multiflorum), kochia (Kochia scoparia), lambsquarters (Chenopodium album), oilseed rape (Brassica napus), pigweed (Amaranthus retroflexus), Russian thistle (Salsola iberica), chamomile (scentless chamomile, Matricaria inodora), speedwell (bird's-eye speedwell, Veronica persica), barley, spring (spring barley, Hordeum vulgare), wheat, spring (spring wheat, Triticum aestivum), buckwheat, wild (wild buckwheat, Polygonum convolvulus), mustard, wild (wild mustard, Sinapis arvensis), oat, wild (wild oat, Avena fatua), radish, wild (wild radish, Raphanus raphanistrum), windgrass (Apera spica-venti), barley, winter (winter barley, Hordeum vulgare), and wheat, winter (winter wheat, Triticum aestivum) were planted into a silt loam soil and treated preemergence with test chemicals formulated in a non-phytotoxic solvent mixture which included a surfactant. At the same time, these same crop and weed species were planted in pots containing the planting medium comprising spaghnum peat moss, vermiculite, wetting agent and starter nutrients and treated with postemergence applications of the test chemicals formulated in the same manner. Plants ranged in height from 2 to 18 cm (1- to 4-leaf stage).
(§3) Treated plants and controls were maintained in a controlled growth environment for 14 to 21 days after which time all species were compared to controls and visually evaluated. Plant response ratings, summarized in Table D, are based on a scale of 0 to 100 where 0 is no effect and 100 is complete control. A dash (-) response means no test result.

[4] = system: pigweed (Amaranthus retroflexus); experiment: Test D pre-/postemergence: pigweed
Source text: as §2, §3

[5] = Flood (flooded paddy test), 62 g ai/ha, visual rating after 13 to 15 days
[6] = Flood (flooded paddy test), 250 g ai/ha, visual rating after 13 to 15 days
[7] = Postemergence, 31 g ai/ha, scale 0 to 100 (0 no effect, 100 complete control)
[8] = Postemergence, 62 g ai/ha, scale 0 to 100 (0 no effect, 100 complete control)
[9] = Postemergence, 125 g ai/ha, scale 0 to 100, 0 no effect, 100 complete control
[10] = Postemergence, 250 g ai/ha, scale 0 to 100 (0 no effect, 100 complete control)
[11] = Preemergence, 31 g ai/ha, scale 0 to 100, 0 no effect, 100 complete control
[12] = Preemergence, 62 g ai/ha, scale 0 to 100
[13] = Preemergence, 125 g ai/ha, scale 0 to 100
[14] = Preemergence, 250 g ai/ha, scale 0 to 100
[15] = Postemergence, 16 g ai/ha, scale 0 to 100
[16] = Flood (flooded paddy test), 125 g ai/ha, visual rating after 13 to 15 days
[17] = Preemergence, 16 g ai/ha, scale 0 to 100, 0 no effect, 100 complete control

Structure (SMILES)	pest or weed control at 62 g/ha [1, 5] [%]	pest or weed control at 250 g/ha [1, 6] [%]	pest or weed control at 62 g/ha [2, 5] [%]	pest or weed control at 250 g/ha [2, 6] [%]	Plant response rating: Chamomile [3, 7]	Plant response rating: Chamomile [3, 8]	Plant response rating: Chamomile [3, 9]	Plant response rating: Chamomile [3, 10]	Plant response rating: Pigweed [4, 7]	Plant response rating: Pigweed [4, 8]	Plant response rating: Pigweed [4, 9]	Plant response rating: Pigweed [4, 10]	Plant response rating, Pigweed [4, 11]	Plant response rating, Pigweed [4, 12]	Plant response rating, Pigweed [4, 13]	Plant response rating, Pigweed [4, 14]	Plant response rating, Chamomile [3, 15]	Plant response rating, Pigweed [4, 15]	further results
Cc1nn(-c2ccc(C(F)(F)F)cc2)nc1Oc1csc(C(F)(F)F)c1 [Compound 1, 4-methyl-2-[4-(trifluoromethyl)phenyl]-5-[[5-(trifluoromethyl)-3-thienyl]oxy]-2H-1,2,3-triazole]	0	0	0	0															
FC(F)(F)COc1nn(-c2ccc(C(F)(F)F)cc2)nc1Cc1ccnc(C(F)(F)F)c1 [Compound 14, 4-[[5-(2,2,2-trifluoroethoxy)-2-[4-(trifluoromethyl)phenyl]-2H-1,2,3-triazol-4-yl]methyl]-2-(trifluoromethyl)pyridine]	40	60	40	75	20	60	100	100	100	100	100	100	20	70	90	100			
COc1nn(-c2ccc(C(F)(F)F)cc2)nc1Cc1ccnc(C(F)(F)F)c1 [Compound 15, 4-[[5-methoxy-2-[4-(trifluoromethyl)phenyl]-2H-1,2,3-triazol-4-yl]methyl]-2-(trifluoromethyl)pyridine]	40	60	75	80	0	0	25	100	80	80	100	100	20	70	98	100	0	80	
Cc1nn(-c2ccc(C(F)(F)F)cn2)nc1Oc1ccnc(C(F)(F)F)c1 [Compound 23]					0	0	0	5	50	80	95	100					0	50	Plant response rating, Ducksalad [1, 5]: 60; Plant response rating, Ducksalad [1, 16]: 60; Plant response rating, Ducksalad [1, 6]: 85; Plant response rating, Ducksalad ([1]; Flood, 31 g ai/ha): 50; Plant response rating, Sedge, Umbrella [2, 5]: 75; Plant response rating, Sedge, Umbrella [2, 16]: 80; Plant response rating, Sedge, Umbrella [2, 6]: 90; Plant response rating, Sedge, Umbrella ([2]; Flood, 31 g ai/ha): 60
Cc1nn(-c2ccc(C(F)(F)F)cn2)nc1Cc1cccc(C(F)(F)F)c1 [Compound 106]					0	0	0	25	50	60	90	90	0	0	20	40	0	10	Plant response rating, Ducksalad [1, 16]: 70; Plant response rating, Ducksalad [1, 6]: 70; Plant response rating, Ducksalad ([1]; Flood, 31 g ai/ha): 0; Plant response rating, Ducksalad ([1]; Flood, 62 g ai/ha): 60; Plant response rating, Sedge, Umbrella [2, 16]: 75; Plant response rating, Sedge, Umbrella [2, 6]: 80; Plant response rating, Sedge, Umbrella ([2]; Flood, 31 g ai/ha): 50; Plant response rating, Sedge, Umbrella ([2]; Flood, 62 g ai/ha): 50
COCc1nn(-c2ccc(C(F)(F)F)cc2)nc1Oc1cccc(OC(F)(F)F)c1 [Compound 115, 4-(methoxymethyl)-5-[3-(trifluoromethoxy)phenoxy]-2-[4-(trifluoromethyl)phenyl]-2H-1,2,3-triazole]		20		80															pest or weed control at 125 g/ha [1, 16]: 0%; pest or weed control at 62 g/ha ([1]; Flood, 62 g ai/ha): 0%; pest or weed control at 125 g/ha [2, 16]: 75%; pest or weed control at 62 g/ha ([2]; Flood, 62 g ai/ha): 70%
FCc1nn(-c2ccc(C(F)(F)F)cc2)nc1Oc1cccc(OC(F)(F)F)c1 [Compound 116, 4-(fluoromethyl)-5-[3-(trifluoromethoxy)phenoxy]-2-[4-(trifluoromethyl)phenyl]-2H-1,2,3-triazole]		50		85															pest or weed control at 125 g/ha [1, 16]: 30%; pest or weed control at 62 g/ha ([1]; Flood, 62 g ai/ha): 0%; pest or weed control at 125 g/ha [2, 16]: 75%; pest or weed control at 62 g/ha ([2]; Flood, 62 g ai/ha): 60%
COc1nn(-c2ccc(C(F)(F)F)cc2)nc1Cc1ccnc(C(F)F)c1 [Compound 138]					10	30	60	80	95	95	100	100					0	90	
Cc1nn(-c2ccc(F)c(C(F)(F)F)c2)nc1Cc1ccnc(C(F)(F)F)c1 [Compound 156]					70	75	100		90	90	95		85	100	100		50	85	Plant response rating, Chamomile [3, 17]: 10; Plant response rating, Chamomile [3, 11]: 55; Plant response rating, Chamomile [3, 12]: 100; Plant response rating, Chamomile [3, 13]: 100; Plant response rating, Pigweed [4, 17]: 50
